According to patent US11945822B2, “Pyrazolo-triazine and/or pyrazolo-pxrimidine derivatives as selective inhibitor of cyclin dependent kinase” (QURIENT CO., LTD., priority 2018, dated 2024):
Read-outs that look alike come from different tables or passages of the source.

How the values were obtained:
MOLT-4 = experiment: Cellular MOLT-4 viability assay (CellTiter-Glo, 72 hours); assay type: cell-based; details: Homo sapiens, MOLT4 viability assay
Procedure: All cell lines were routinely tested for mycoplasma.
The effect of the CDK7 inhibitor to inhibit the growth of target cancer cells was evaluated through the 72 hours time period of viability assay. Briefly, the candidate cell line ware plated in 96 well plate at the following density of cells respectively. […] DMSO solvent without compound served as a control and final DMSO concentration less than 0.1%. After 72 hours of incubation at 37° C., 5% CO2 incubator, cells were analyzed for the viability using the CellTiter-Glo Luminescent Cell Viability Assay (Promega, Cat #G7570). All viability assays were performed in duplicate and Luminescence was read using an Envision (Perkin Elmer, USA). Data was analyzed using XLfit software.

H460 = experiment: Cellular H460 viability assay (CellTiter-Glo, 72 hours); assay type: cell-based; details: Homo sapiens, NCI-H460
How it was run: (§1)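 Growth inhibition is assessed over a 72-hour incubation at 37 °C in 5% CO2, relative to DMSO vehicle (final concentration less than 0.1%). Luminescence from CellTiter-Glo serves as the viability signal.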

CDK5/p25 = molecular target: T1, CDK5/p25 (Homo sapiens, UniProt Q00535); experiment: Enzymatic assay for CDK5 (FRET based LANCE Ultra kinase assay); assay type: biochemical
T1 construct: purchased Invitrogen PR8543B
T1 sequence (Q00535 whole entry): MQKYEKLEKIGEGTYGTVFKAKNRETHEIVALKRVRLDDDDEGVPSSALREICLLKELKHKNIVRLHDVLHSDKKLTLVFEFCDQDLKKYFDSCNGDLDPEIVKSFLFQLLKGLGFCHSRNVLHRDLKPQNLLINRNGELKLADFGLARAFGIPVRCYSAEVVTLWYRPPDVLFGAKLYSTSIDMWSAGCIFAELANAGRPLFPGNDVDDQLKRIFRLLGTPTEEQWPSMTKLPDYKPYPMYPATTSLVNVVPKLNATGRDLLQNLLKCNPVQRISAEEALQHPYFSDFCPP
T1 sequence (Q15078 99-307 partner limits assumed): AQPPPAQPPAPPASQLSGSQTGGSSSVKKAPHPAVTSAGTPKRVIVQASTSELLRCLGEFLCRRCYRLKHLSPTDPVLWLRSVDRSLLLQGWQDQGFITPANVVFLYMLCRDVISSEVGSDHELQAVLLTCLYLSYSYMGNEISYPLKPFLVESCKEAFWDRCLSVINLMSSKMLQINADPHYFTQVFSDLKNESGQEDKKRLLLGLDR
How it was run: (§2)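 LANCE Ultra TR-FRET: ULight-MBP peptide (68 nM) with ATP at Km, […], 60 min at 23° C. EDTA plus Eu-anti-phospho-MBP added, another 60 min, then 665/615 nm emission read. Compounds tested as 8-dose 4-fold DMSO dilutions.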

CDK1/Cyclin B = molecular target: T2, CDK1/Cyclin B (Homo sapiens, UniProt P06493); experiment: Enzymatic assay for CDK1 (FRET based LANCE Ultra kinase assay); assay type: biochemical
T2 construct: purchased Invitrogen PR4768C
T2 sequence (P06493 whole entry): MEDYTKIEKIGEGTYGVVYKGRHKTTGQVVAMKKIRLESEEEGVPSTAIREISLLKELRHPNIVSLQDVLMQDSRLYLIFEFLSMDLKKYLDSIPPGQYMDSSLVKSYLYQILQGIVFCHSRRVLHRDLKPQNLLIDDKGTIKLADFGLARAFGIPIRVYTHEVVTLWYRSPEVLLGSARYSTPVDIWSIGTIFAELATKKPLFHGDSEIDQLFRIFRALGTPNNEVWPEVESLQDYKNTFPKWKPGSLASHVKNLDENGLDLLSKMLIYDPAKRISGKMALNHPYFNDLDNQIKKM
T2 sequence (P14635 whole entry partner): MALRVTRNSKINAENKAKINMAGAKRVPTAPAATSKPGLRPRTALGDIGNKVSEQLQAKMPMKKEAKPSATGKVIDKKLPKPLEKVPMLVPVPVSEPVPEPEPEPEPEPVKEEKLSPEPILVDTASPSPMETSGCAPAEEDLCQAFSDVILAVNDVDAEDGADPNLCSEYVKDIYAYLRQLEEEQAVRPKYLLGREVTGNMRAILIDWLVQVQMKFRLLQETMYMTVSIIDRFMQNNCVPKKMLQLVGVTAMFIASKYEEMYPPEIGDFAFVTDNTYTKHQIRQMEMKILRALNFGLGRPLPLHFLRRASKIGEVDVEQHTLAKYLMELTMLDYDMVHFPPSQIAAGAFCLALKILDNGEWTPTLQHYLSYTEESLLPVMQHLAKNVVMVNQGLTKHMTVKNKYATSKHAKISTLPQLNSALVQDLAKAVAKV
How it was run: as §2

CDK2/Cyclin A = molecular target: T3, CDK2/Cyclin A (Homo sapiens, UniProt P24941); experiment: Enzymatic assay for CDK2 (FRET based LANCE Ultra kinase assay); assay type: biochemical
T3 construct: purchased Invitrogen PV6290
How it was run: as §2

CDK7/Cyclin H/MNAT1 = molecular target: T4, CDK7/Cyclin H/MNAT1 (Homo sapiens, UniProt P50613); experiment: Enzymatic assay for CDK7 (FRET based LANCE Ultra kinase assay); assay type: biochemical
T4 construct: purchased Invitrogen PR6749B
T4 sequence (P50613 whole entry): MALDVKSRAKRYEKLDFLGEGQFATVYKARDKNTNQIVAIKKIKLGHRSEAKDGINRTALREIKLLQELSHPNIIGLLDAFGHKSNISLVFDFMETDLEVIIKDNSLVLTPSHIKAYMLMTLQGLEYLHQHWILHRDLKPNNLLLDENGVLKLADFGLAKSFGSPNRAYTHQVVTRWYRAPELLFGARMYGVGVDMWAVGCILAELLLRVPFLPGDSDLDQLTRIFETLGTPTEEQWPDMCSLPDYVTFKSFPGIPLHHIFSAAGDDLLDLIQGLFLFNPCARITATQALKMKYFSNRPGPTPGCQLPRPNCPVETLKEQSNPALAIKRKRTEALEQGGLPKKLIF
T4 sequence (P51946 whole entry partner): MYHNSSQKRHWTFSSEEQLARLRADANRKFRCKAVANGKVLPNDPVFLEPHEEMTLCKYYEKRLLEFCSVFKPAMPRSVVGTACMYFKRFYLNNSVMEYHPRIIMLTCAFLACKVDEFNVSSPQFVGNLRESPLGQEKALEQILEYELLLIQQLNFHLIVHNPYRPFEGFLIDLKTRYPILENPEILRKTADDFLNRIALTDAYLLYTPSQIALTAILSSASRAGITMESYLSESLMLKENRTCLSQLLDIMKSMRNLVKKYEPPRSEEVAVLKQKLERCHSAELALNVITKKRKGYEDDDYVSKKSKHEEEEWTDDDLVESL
T4 sequence (P51948 whole entry partner): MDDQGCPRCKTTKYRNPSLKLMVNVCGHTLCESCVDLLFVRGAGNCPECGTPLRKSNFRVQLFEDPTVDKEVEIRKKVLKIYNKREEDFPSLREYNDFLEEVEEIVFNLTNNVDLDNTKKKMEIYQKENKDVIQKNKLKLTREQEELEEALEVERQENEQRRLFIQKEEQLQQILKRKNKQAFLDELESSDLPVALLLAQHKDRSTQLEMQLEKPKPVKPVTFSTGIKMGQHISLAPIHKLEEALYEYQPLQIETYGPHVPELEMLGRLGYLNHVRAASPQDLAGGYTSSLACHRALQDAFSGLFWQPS
How it was run: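 Inhibition was measured at Km ATP by time-resolved FRET between a Eu anti-phospho antibody and a phosphorylated ULight peptide. The enzyme was the purified CDK7/cyclin complex, and data were curve-fitted.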

MV4-11 = experiment: Cellular MV4-11 viability assay (CellTiter-Glo, 72 hours); assay type: cell-based; details: Homo sapiens
How it was run: as §1

HCT116 = experiment: Cellular HCT116 viability assay (CellTiter-Glo, 72 hours); assay type: cell-based; details: Homo sapiens, HCT-116
How it was run: as §1

[1] = read-out: CDK5 enzymatic activity (IC50 range)
[2] = read-out: CDK1 enzymatic activity (IC50 range)
[3] = read-out: CDK2 enzymatic activity (IC50 range)
[4] = read-out: CDK7 enzymatic activity (IC50 range)

Row | Structure (SMILES) | IC50 (MOLT-4) | IC50 (H460) | IC50 (CDK5/p25; [1]) | IC50 (CDK1/Cyclin B; [2]) | IC50 (CDK2/Cyclin A; [3]) | CDK1/CDK7: Selectivity of CDK7 inhibition over CDK1 inhibition (CDK7/Cyclin H/MNAT1; CDK7 over CDK1) | IC50 (CDK7/Cyclin H/MNAT1; [4]) | CDK2/CDK7: Selectivity of CDK7 inhibition over CDK2 inhibition (CDK7/Cyclin H/MNAT1; CDK7 over CDK2) | CDK5/CDK7: Selectivity of CDK7 inhibition over CDK5 inhibition (CDK7/Cyclin H/MNAT1; CDK7 over CDK5) | other results
1 | NC1CCN(c2nc(NCc3ccccc3-n3cccn3)n3ncc(I)c3n2)CC1 [Compound 36] | 1 to 10 µM |  | < 0.1 µM | 0.1 to 1 µM | 0.1 to 1 µM | B (B=less than 200 fold, but greater than 20 fold) | < 0.1 µM | C (C=less than 20 fold) | C (C=less than 20 fold) | 
2 | NC1CCN(c2nc(NCc3ccccc3-n3cccn3)n3ncc(F)c3n2)CC1 [Compound 37] | > 10 µM |  |  |  |  |  |  |  |  | 
3 | NC1CCN(c2nc(NCc3ccccc3-n3cccn3)n3ncc(C(F)(F)F)c3n2)CC1 [Compound 41] | > 10 µM | < 1 µM |  |  |  |  |  |  |  | 
4 | CC(C)c1cnn2c(NCc3ccccc3-c3ccc4ccccc4[n+]3[O-])nc(N3CCC(N)CC3)nc12 [Compound 81] | > 10 µM |  | > 1 µM | > 1 µM | > 1 µM | A (A=greater than 200 fold) | < 0.1 µM | A (A=greater than 200 fold) | A (A=greater than 200 fold) | 
5 | CC(C)c1cnn2c(NCc3cccc(Oc4cccc(NC(=O)CCCN(C)C)c4)c3)nc(N3CCC(N)CC3)nc12 [Compound 84] | 1 to 10 µM |  |  |  |  |  |  |  |  | 
6 | CCC(=O)Nc1cccc(Oc2cccc(CNc3nc(N4CCC(N)CC4)nc4c(C(C)C)cnn34)c2)c1 [Compound 86] | 1 to 10 µM |  | < 0.1 µM | 0.1 to 1 µM | 0.1 to 1 µM | B (B=less than 200 fold, but greater than 20 fold) | < 0.1 µM | B (B=less than 200 fold, but greater than 20 fold) | C (C=less than 20 fold) | 
7 | CC(C)c1cnn2c(NCc3ccccc3Oc3ccc(NC(=O)CCCN(C)C)cc3)nc(N3CCC(N)CC3)nc12 [Compound 91] | 1 to 10 µM |  | 0.1 to 1 µM | 0.1 to 1 µM | 0.1 to 1 µM | A (A=greater than 200 fold) | < 0.1 µM | B (B=less than 200 fold, but greater than 20 fold) | B (B=less than 200 fold, but greater than 20 fold) | 
8 | CC(C)c1cnn2c(NCc3cccc(Oc4ccc(Cl)c(NC(=O)CCCN(C)C)c4)c3)nc(N3CCC(N)CC3)nc12 [Compound 94] | 1 to 10 µM |  | 0.1 to 1 µM | 0.1 to 1 µM | 0.1 to 1 µM | A (A=greater than 200 fold) | < 0.1 µM | B (B=less than 200 fold, but greater than 20 fold) | B (B=less than 200 fold, but greater than 20 fold) | 
9 | Cc1cccc(-n2ccc(C(C)(C)O)n2)c1CNc1nc(NCC2CCNCC2)nc2c(C(C)C)cnn12 [Compound 232] |  | 1 to 10 µM | > 1 µM | > 1 µM | > 1 µM | A (A=greater than 200 fold) | < 0.1 µM | A (A=greater than 200 fold) | A (A=greater than 200 fold) | IC50 (MV4-11): 1 to 10 µM; IC50 (HCT116): 1 to 10 µM
10 | Cc1cccc(C)c1CNc1nc(N2CCC(N)CC2)nc2c(C(C)C)cnn12 [Compound 235] |  | 1 to 10 µM | 0.1 to 1 µM | > 1 µM | > 1 µM | A (A=greater than 200 fold) | < 0.1 µM | B (B=less than 200 fold, but greater than 20 fold) | B (B=less than 200 fold, but greater than 20 fold) | IC50 (MV4-11): 1 to 10 µM; IC50 (HCT116): 1 to 10 µM
11 | CC(C)c1cnn2c(NCc3c(Cl)cccc3Cl)nc(N3CCC(N)CC3)nc12 [Compound 257] |  | < 1 µM |  |  |  |  |  |  |  | IC50 (CDK5/p25; read-out: CDK5 enzymatic activity (IC50 activity range)): 0.1 to 1 µM; IC50 (MV4-11): < 1 µM; IC50 (CDK1/Cyclin B; read-out: CDK1 enzymatic activity (IC50 activity range)): > 1 µM; IC50 (CDK2/Cyclin A; read-out: CDK2 enzymatic activity (IC50 activity range)): 0.1 to 1 µM; IC50 (HCT116): < 1 µM; CDK1/CDK7: Selectivity of CDK7 inhibition over CDK1 inhibition (CDK7/Cyclin H/MNAT1; CDK1/CDK7): A (A=greater than 200 fold); CDK2/CDK7: Selectivity of CDK7 inhibition over CDK2 inhibition (CDK7/Cyclin H/MNAT1; CDK2/CDK7): B (B=less than 200 fold, but greater than 20 fold); CDK5/CDK7: Selectivity of CDK7 inhibition over CDK5 inhibition (CDK7/Cyclin H/MNAT1; CDK5/CDK7): B (B=less than 200 fold, but greater than 20 fold); IC50 (CDK7/Cyclin H/MNAT1; read-out: CDK7 enzymatic activity (IC50 activity range)): < 0.1 µM

The next lines start with results.

Row | IC50 (MOLT-4) | IC50 (H460) | IC50 (CDK5/p25; [1]) | IC50 (CDK1/Cyclin B; [2]) | IC50 (CDK2/Cyclin A; [3]) | CDK1/CDK7: Selectivity of CDK7 inhibition over CDK1 inhibition (CDK7/Cyclin H/MNAT1; CDK7 over CDK1) | IC50 (CDK7/Cyclin H/MNAT1; [4]) | Structure (SMILES) | CDK2/CDK7: Selectivity of CDK7 inhibition over CDK2 inhibition (CDK7/Cyclin H/MNAT1; CDK7 over CDK2) | CDK5/CDK7: Selectivity of CDK7 inhibition over CDK5 inhibition (CDK7/Cyclin H/MNAT1; CDK7 over CDK5) | other results
12 | > 10 µM | 1 to 10 µM |  |  |  |  |  | CC(C)c1cnn2c(NCc3ncccc3-n3cccn3)nc(N3CCC(N)CC3)nc12 [Compound 5] |  |  | 
13 | > 10 µM | < 1 µM |  |  |  |  |  | CC(C)c1cnn2c(NCc3ccncc3-n3cccn3)nc(N3CCC(N)CC3)nc12 [Compound 6] |  |  | 
14 | 1 to 10 µM | < 1 µM |  |  |  |  |  | CC(C)c1cnn2c(NCc3ccccc3-c3ccco3)nc(N3CCC(N)CC3)nc12 [Compound 45] |  |  | 
15 | 1 to 10 µM |  |  |  |  |  |  | CC(C)c1cnn2c(NCc3ccccc3Oc3cccc(NC(=O)CCCN(C)C)c3)nc(N3CCC(N)CC3)nc12 [Compound 82] |  |  | 
16 | 1 to 10 µM |  | 0.1 to 1 µM | > 1 µM | 0.1 to 1 µM | A (A=greater than 200 fold) | < 0.1 µM | CC(C)c1cnn2c(NCc3cccc(N4CCN(C)CC4)c3)nc(N3CCC(N)CC3)nc12 [Compound 83] | A (A=greater than 200 fold) | B (B=less than 200 fold, but greater than 20 fold) | 
17 | > 10 µM |  |  |  |  |  |  | CC(C)c1cnn2c(NCc3cccc(N4CCN(C(=O)CCCN(C)C)CC4)c3)nc(N3CCC(N)CC3)nc12 [Compound 85] |  |  | 
18 | 1 to 10 µM |  | 0.1 to 1 µM | > 1 µM | 0.1 to 1 µM | A (A=greater than 200 fold) | < 0.1 µM | CC(C)c1cnn2c(NCc3cccc(Oc4ccc(F)c(NC(=O)CCCN(C)C)c4)c3)nc(N3CCC(N)CC3)nc12 [Compound 93] | B (B=less than 200 fold, but greater than 20 fold) | B (B=less than 200 fold, but greater than 20 fold) | 
19 | > 10 µM |  |  |  |  |  |  | CC(C)c1cnn2c(NCc3ccccc3-n3cccn3)nc(Oc3ccc(N4CCCC4)cc3)nc12 [Compound 162] |  |  | 
20 | 1 to 10 µM |  | > 1 µM | > 1 µM | > 1 µM | A (A=greater than 200 fold) | < 0.1 µM | CC(C)c1cnn2c(NCc3ccccc3-n3cccn3)nc(Nc3ccc(C4CCNCC4)cn3)nc12 [Compound 169] | B (B=less than 200 fold, but greater than 20 fold) | B (B=less than 200 fold, but greater than 20 fold) | 
21 |  | < 1 µM | 0.1 to 1 µM | 0.1 to 1 µM | 0.1 to 1 µM | A (A=greater than 200 fold) | < 0.1 µM | CC(C)c1cnn2c(NCc3ccccc3-n3ccc(C(C)(C)O)n3)nc(N3CCC(N)CC3)nc12 [Compound 236] | B (B=less than 200 fold, but greater than 20 fold) | B (B=less than 200 fold, but greater than 20 fold) | IC50 (MV4-11): < 1 µM; IC50 (HCT116): < 1 µM
22 |  | 1 to 10 µM | > 1 µM | > 1 µM | > 1 µM | A (A=greater than 200 fold) | < 0.1 µM | CC[C@@H](N)COc1nc(NCc2ccccc2-c2ccc3ccccc3n2)n2ncc(C(C)C)c2n1 [Compound 237] | A (A=greater than 200 fold) | A (A=greater than 200 fold) | IC50 (MV4-11): 1 to 10 µM; IC50 (HCT116): 1 to 10 µM
23 |  | 1 to 10 µM | > 1 µM | > 1 µM | > 1 µM | A (A=greater than 200 fold) | < 0.1 µM | CC(C)c1cnn2c(NCc3c(Cl)cccc3C(C)(C)O)nc(N3CCC(N)CC3)nc12 [Compound 239] | A (A=greater than 200 fold) | A (A=greater than 200 fold) | IC50 (MV4-11): 1 to 10 µM; IC50 (HCT116): 1 to 10 µM
